# Assay results taken from patent publication US20080293583A1, “Methods for diagnosing mood disorders” (Wyeth, priority 2003, published 2008).
# Experiments:
# Type in all cases: in vivo
# [1] = tested on: Hippocampal Cholinergic Neurostimulating peptide (PEBP; HCNP; Raf kinase inhibitor protein); assay: 2-DE proteome analysis of rat hippocampus: HCNP; conditions: rat hippocampus cytosolic extract, 10 mg/kg i.p. daily 14 days, vs control; gel spot 60
# Procedure: (§1) Animal dosing. Adult male Sprague Dawley rats weighing 230-320 g were housed with ad libitum access to food and water. After 1 week of habituation, rats were administered either an antidepressant or vehicle alone. The following drugs were administered intraperitoneally (i.p.): fluoxetine (10 mg/kg daily), venlafaxine (10 mg/kg daily) or vehicle alone (1 ml/kg normal saline daily) for 14 days (n=3 rats per group).
# (§2) Sample preparation and cytosolic protein extraction. The animals were euthanized and hippocampi were rapidly dissected from the whole brain. Samples from each treatment group were pooled and stored at −85° C. Cytosolic extracts were prepared using the universal extraction kit from Sigma (prot-two) as follows: soluble cytoplasmic extraction reagent (S2688) was added to the hippocampal tissue (10 ml/250 mg wet weight). […]
# (§3) Two-dimensional gel electrophoresis. […] Molecular masses were determined by running standard protein markers (Genomic Solutions Inc.), covering the range 10-200 kDa as well as internal verification via landmark proteins within the gel. […]
# (§4) Protein fixation, silver staining and 2-D gel comparisons. […] Protein spots were outlined (first automatically and then manually) and quantified using the HT analyzer v2.2 software (Genomic Solutions Inc.). The software calculated the relative spot volume of the proteins compared with the total amount of protein in the gel. […]
# [2] = tested on: L-Lactate Dehydrogenase B Chain; assay: 2-DE proteome analysis of rat hippocampus: L-Lactate Dehydrogenase B Chain; conditions: rat hippocampus cytosolic extract, 10 mg/kg i.p. daily 14 days, vs control; gel spot 23
# Procedure: as §1, §2, §3, §4
# [3] = tested on: Lymphotactin [precursor] (Cytokine SCM-1; Small inducible cytokine C1); assay: 2-DE proteome analysis of rat hippocampus: Lymphotactin; conditions: rat hippocampus cytosolic extract, 10 mg/kg i.p. daily 14 days, vs control; gel spot 80
# Procedure: as §1, §2, §3, §4
# [4] = tested on: 61 S Ribosomal protein L28; assay: 2-DE proteome analysis of rat hippocampus: Ribosomal protein L28; conditions: rat hippocampus cytosolic extract, 10 mg/kg i.p. daily 14 days, vs control; gel spot 66
# Procedure: as §1, §2, §3, §4
# [5] = tested on: Glutathione S-Transferase Yb3; assay: 2-DE proteome analysis of rat hippocampus: Glutathione S-Transferase Yb3; conditions: rat hippocampus cytosolic extract, 10 mg/kg i.p. daily 14 days, vs control; gel spot 56
# Procedure: as §1, §2, §3, §4
# [6] = tested on: Pyruvate Dehydrogenase E1 component beta subunit, mitochondrial (precursor); assay: 2-DE proteome analysis of rat hippocampus: Pyruvate Dehydrogenase E1 beta; conditions: rat hippocampus cytosolic extract, 10 mg/kg i.p. daily 14 days, vs control; gel spot 26
# Procedure: as §1, §2, §3, §4
# [7] = tested on: 10 KD heat shock protein, mitochondrial (Hsp10); assay: 2-DE proteome analysis of rat hippocampus: Hsp10; conditions: rat hippocampus cytosolic extract, 10 mg/kg i.p. daily 14 days, vs control; gel spot 83
# Procedure: as §1, §2, §3, §4
# [8] = tested on: Serine Protease Inhibitor 2.1 (SPI-2.1); assay: 2-DE proteome analysis of rat hippocampus: SPI-2.1; conditions: rat hippocampus cytosolic extract, 10 mg/kg i.p. daily 14 days, vs control; gel spot 62
# Procedure: as §1, §2, §3, §4
# [9] = tested on: Dihydropyrimidinase Related Protein-2 (DRP-2; CRMP-2; TOAD-64); assay: 2-DE proteome analysis of rat hippocampus: DRP-2/CRMP-2; conditions: rat hippocampus cytosolic extract, 10 mg/kg i.p. daily 14 days, vs control; gel spot 1
# Procedure: as §1, §2, §3, §4
# [10] = tested on: 60S Ribosomal Protein L18A; assay: 2-DE proteome analysis of rat hippocampus: Ribosomal Protein L18A; conditions: rat hippocampus cytosolic extract, 10 mg/kg i.p. daily 14 days, vs control; gel spot 58
# Procedure: as §1, §2, §3, §4
# Alpha-enolase = assay: 2-DE proteome analysis of rat hippocampus: Alpha-enolase; conditions: rat hippocampus cytosolic extract, 10 mg/kg i.p. daily 14 days, vs control; for Fold change, Alpha-enolase (spot 8): gel spot 8; for Fold change, Alpha-enolase (spot 9): gel spot 9; for Fold change, Alpha-enolase (spot 10): gel spot 10
# Procedure: as §1
# Sample preparation and cytosolic protein extraction. The animals were euthanized and hippocampi were rapidly dissected from the whole brain. Samples from each treatment group were pooled and stored at −85° C. Cytosolic extracts were prepared using the universal extraction kit from Sigma (prot-two) as follows: soluble cytoplasmic extraction reagent (S2688) was added to the hippocampal tissue (10 ml/250 mg wet weight). Samples were sonicated (4 times at 30 seconds) and centrifuged for 45 minutes (14,000 g) at 4° C. The supernatant was decanted and stored on ice. Ten milliliters of the soluble cytoplasmic extraction reagent was added to the remaining pellet and the sonication and centrifugation steps were repeated. The supernatant was decanted, combined with the previous supernatant and SpeedVac (Savant Instruments, Halbrook, N.Y.) dried. Each sample was dissolved in 2 ml of 2-D lysis buffer (6 M urea, 2 M thiourea, 4% CHAPS, 40 mM Tris, 65 mM dithiothreitol (DTT), 1 mM sodium vanadate, 1 mM sodium fluoride, protease inhibitor tablet (#1836145, Roche)), concentrated and desalted (Centricon tube; 6500 rpm) at 10° C. for 12 hours.
# Two-dimensional gel electrophoresis. First dimensional isoelectric focusing (IEF) was performed on 18 cm IPG strips (pH 4-7) using an IPGphor unit (Amersham Pharmacia). Each strip was rehydrated for 16 hours with sample lysate (˜500 ug) in a final volume of 400 uL of IEF solution (10 uL of bromophenol blue (0.25% w/v); 2 uL of Ampholyte (pH 4-7, Amersham #17-6000-86); 2-D lysis buffer). […] The strips were then subjected to a two-step equilibration (50 mM Tris; 2% SDS; 30% glycerol) in (A) 0.5% DTT (Bio-Rad) and (B) 4.5% iodoacetamide (Sigma) buffers before proceeding to SDS-PAGE. Separation in the second dimension was performed on 10% SDS polyacrylamide gels (180×1.5 mm) at a constant voltage of 500 V at 15° C. for 28 hours using an Investigator 2D electrophoresis unit (Genomic Solutions Inc., MA) which accommodated 10 gels. Molecular masses were determined by running standard protein markers (Genomic Solutions Inc.), covering the range 10-200 kDa as well as internal verification via landmark proteins within the gel. The pl values were used as given by the supplier of the immobilized pH-gradient strips.
# Protein fixation, silver staining and 2-D gel comparisons. Silver staining of the gels was performed using a silver stain kit (gs#80-0183; Genomic Solutions). All steps were performed at room temperature, gently agitating the trays on a rotary shaker at low speed. Stained gels were scanned using an 8-bit ccd camera and the Investigator G3 ProPic system (Genomic Solutions Inc.). Protein spots were outlined (first automatically and then manually) and quantified using the HT analyzer v2.2 software (Genomic Solutions Inc.). The software calculated the relative spot volume of the proteins compared with the total amount of protein in the gel. The HT analyzer software was used to cross-match (‘synchronize’) and identify protein spots between control gels and drug treatment gels that were different in integrated intensity by at least a factor of 1.5 versus control. […] This population of spots were automatically picked from each gel with the ProPic system for in-gel trypsin digestion.
# Enzymatic digestion of protein spots. Silver-stained protein spots were automatically excised and transferred to a 96-well polypropylene microtiter plate. Each excised spot was de-stained to remove the silver ions and enhance sensitivity with 30 mM potassium ferricyanide and 100 mM sodium thiosulfate (1:1 ratio). […]
SMILES,"Fold change, Hippocampal Cholinergic Neurostimulating peptide (PEBP; HCNP) [1] [Fold change]","Fold change, L-Lactate Dehydrogenase B Chain [2] [Fold change]","Fold change, Lymphotactin [precursor] [3] [Fold change]","Fold change, 61 S Ribosomal protein L28 [4] [Fold change]","Fold change, Glutathione S-Transferase Yb3 [5] [Fold change]","Fold change, Pyruvate Dehydrogenase E1 component beta subunit [6] [Fold change]","Fold change, 10 KD heat shock protein, mitochondrial (Hsp10) [7] [Fold change]","Fold change, Serine Protease Inhibitor 2.1 (SPI-2.1) [8] [Fold change]","Fold change, Dihydropyrimidinase Related Protein-2 (DRP-2; CRMP-2; TOAD-64) [9] [Fold change]","Fold change, 60S Ribosomal Protein L18A [10] [Fold change]","Fold change, Alpha-enolase (spot 8) (Alpha-enolase) [Fold change]","Fold change, Alpha-enolase (spot 9) (Alpha-enolase) [Fold change]","Fold change, Alpha-enolase (spot 10) (Alpha-enolase) [Fold change]"
"CNCCC(Oc1ccc(C(F)(F)F)cc1)c1ccccc1 (centres unmarked) [Fluoxetine, fluoxetine]",1.9,2.5,2,0.7,0.5,3.2,2.3,2.9,2.6,1.8,3.4,5,3
"COc1ccc(C(CN(C)C)C2(O)CCCCC2)cc1 (centres unmarked) [Venlafaxine, venlafaxine]",2,2.5,1.9,0.6,0.5,2.6,3.8,1.9,4.1,2.9,2,4.8,4.1
